The source of these data is ChEMBL document CHEMBL1127959, “Thia-prostanoid analogs with combined thromboxane receptor antagonist/thromboxane synthase inhibitor activities. Synthesis and pharmacological evaluation” (Bioorg Med Chem Lett, 1994).

Structures are written as SMILES.

In one assay the target is T1, Thromboxane-A synthase (Homo sapiens, UniProt P24557).
T1 sequence (P24557 whole entry): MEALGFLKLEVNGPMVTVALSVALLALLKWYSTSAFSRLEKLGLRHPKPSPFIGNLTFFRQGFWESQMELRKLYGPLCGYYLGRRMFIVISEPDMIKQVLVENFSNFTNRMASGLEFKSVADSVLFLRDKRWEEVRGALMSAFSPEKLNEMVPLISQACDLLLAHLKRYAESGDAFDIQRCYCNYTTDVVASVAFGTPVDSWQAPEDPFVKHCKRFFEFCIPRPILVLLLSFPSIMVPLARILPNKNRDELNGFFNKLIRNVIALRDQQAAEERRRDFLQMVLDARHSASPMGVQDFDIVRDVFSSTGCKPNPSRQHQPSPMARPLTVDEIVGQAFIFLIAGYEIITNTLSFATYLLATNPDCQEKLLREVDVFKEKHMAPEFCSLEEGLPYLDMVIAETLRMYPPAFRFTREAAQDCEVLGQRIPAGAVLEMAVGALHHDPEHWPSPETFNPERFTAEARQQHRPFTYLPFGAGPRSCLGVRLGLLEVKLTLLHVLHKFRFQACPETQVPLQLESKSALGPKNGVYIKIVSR
In words: In vitro inhibition of thromboxane synthase.
Broadly, the IC50 is the point on the concentration scale where inhibition reaches its midpoint. With `O=C(O)CC/C=C\CC[C@@H]1[C@@H](c2cccnc2)[S@@+]([O-])C[C@H]1OCc1ccc(-c2ccccc2)cc1`, the IC50 is > 0.2 µM.

As for `O=C(O)CC/C=C\CC[C@@H]1[C@@H](c2cccnc2)[S@+]([O-])C[C@H]1OCc1ccc(-c2ccccc2)cc1`, the IC50 was > 0.2 µM.

Consider `O=C(O)CC/C=C\CC[C@H]1[C@@H](OCc2ccc(-c3ccccc3)cc2)CS(=O)(=O)[C@@H]1c1cccnc1`, for which the IC50 is > 0.2 µM.

For the molecule `O=C(O)CC/C=C\CC[C@H]1[C@@H](OCc2ccc(-c3ccccc3)cc2)CS[C@@H]1c1cccnc1`, the IC50 came to 0.011 µM.

Turning to `O=C(O)CC/C=C\CC[C@H]1[C@@H](OCc2ccc(-c3ccccc3)cc2)C[S+]([O-])[C@@H]1c1cccnc1` (some centres not stated), the IC50 is > 0.1 µM.

With `O=C(O)CC/C=C\CC[C@@H]1[C@@H](c2cccnc2)S(=O)(=O)C[C@H]1OCc1ccc(-c2ccccc2)cc1`, the IC50 is > 0.2 µM.

As for `O=C(O)CCC/C=C\C[C@@H]1[C@@H](c2cccnc2)SC[C@H]1OCc1ccc(-c2ccccc2)cc1`, the half-maximal inhibitory concentration (IC50) stood at 0.043 µM.

Turning to `O=C(O)CC/C=C\CC[C@@H]1[C@@H](c2cccnc2)SC[C@H]1OCc1ccc(-c2ccccc2)cc1` (stereo in doubt; 1), the IC50 was found to be 0.01 µM.

As for `O=C(O)CC/C=C\CC[C@@H]1[C@@H](c2cccnc2)SC[C@H]1OCc1ccc(-c2ccccc2)cc1` (stereo in doubt; (+)), the IC50 is 0.018 µM.

`O=C(O)CC/C=C\CC[C@@H]1[C@@H](c2cccnc2)SC[C@H]1OCc1ccc(-c2ccccc2)cc1` (stereo in doubt; (-)) yielded an IC50 of 0.013 µM.

Molecule `O=C(O)CCCCCc1cccc2cncn12` [PIRMAGREL] registered an IC50 of 0.003 µM.

For the next assay, the target named is T2, Thromboxane A2 receptor (Homo sapiens, UniProt P21731).
T2 sequence (P21731 whole entry): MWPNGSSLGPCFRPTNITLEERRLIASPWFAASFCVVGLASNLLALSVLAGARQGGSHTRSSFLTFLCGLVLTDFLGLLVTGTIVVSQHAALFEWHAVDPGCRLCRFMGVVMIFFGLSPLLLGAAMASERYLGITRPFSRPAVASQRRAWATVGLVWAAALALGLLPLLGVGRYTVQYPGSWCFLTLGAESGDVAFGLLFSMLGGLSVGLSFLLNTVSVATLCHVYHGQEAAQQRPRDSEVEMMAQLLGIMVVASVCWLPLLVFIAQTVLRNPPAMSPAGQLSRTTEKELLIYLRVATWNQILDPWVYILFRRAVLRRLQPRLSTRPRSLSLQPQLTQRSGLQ
In words: In vitro thromboxane receptor antagonist activity was determined by inhibition of U-46619 induced aggregation of washed human platelets. The assay is classed as functional.
As to `O=C(O)CCCCCc1cccc2cncn12` [PIRMAGREL], the 50% inhibitory concentration (IC50) result is listed as “Not Active”.
